Test results published in patent US8642765B2, “Azaindole-indole coupled derivatives, preparation methods and uses thereof” (priority 2007, dated 2014).

Columns and labels:
DU145 tumor cells = test: MTT growth inhibition of DU145 cells, 72 h; format: cell-based, human; details: Table 5; DU145, 72 h, MTT
Method: DU145 cells were inoculated in RPM11640 medium containing 10% calf serum, incubated at 37° C., 5% CO2 in CO2 incubator, and passaged every 2-3 days. In this experiment, cells were grown in logarithmic growth phase.
In the experiment, the cells at logarithmic growth phase were formulated into suspension, and the viability by trypan blue staining was more than 98%. The suspension was divided into several groups: 1 as blank control group (cell suspension); and 2 as experimental groups (cell suspension plus drugs).
The drugs were formulated into a stock solution in DMSO, and the concentration of the stock solution was 20 mmol (used within 4 hours). In the experiment, the work solution of the drugs was diluted with RPM11640 medium containing 10% calf serum under aseptic condition, to a final concentration of 80 μM. The drug concentrations were increased by 2 times (1.25-20 μM).
The DU145 cell in logarithmic growth phase were selected, centrifuged, counted, and formulated into a cell suspension (2.5×10^4/ml) with RPM11640 medium containing 10% calf serum. The cell suspension were inoculated into 96-well plates at a density of 5000 cells/200 μl per well, incubated for 24 hours at 37° C., 5% CO2. According to the above concentration of the drug, the cells were inoculated to 6 groups (including one control group), with 8 wells per group. After incubating for 72 hours, the viability of cells was measured by MTT assay. The absorbance value (A) was measured with detection wavelength at 540 nm, reference wavelength at 630 nm. The inhibitory rate (I) was calculated by the following equation, where T was the absorbance value of the experimental groups, and C was the absorbance value of the blank control group: I=(1−T/C)×100%
The regression equation was calculated by the concentration-inhibitory rate curve, to obtain 50% and 90% inhibition concentration (IC50 and IC90, μM).

[1] = Dissolution of solid dispersion preparations; format: physicochemical; details: 45 minute, 100 ml of 1% sodium dodecyl sulfate solution, 37±0.5° C., 100 r/min
Method: Instruments: RCZ-5A capacity medicament dissolve and infiltrate apparatus is made by Tianjin University Precision Instruments Factory. UV1900 UV-Vis spectrophotometer is made by Shanghai Yayan Electronic Science And Technology Co., Ltd.
Dissolution determination methods: According to the third method of XC dissolution assay stated in the appendix of Chinese Pharmacopeia (Edition 2005), the rotation speed was 100 r/min, the temperature was 37±0.5° C., and the dissolution medium was 100 ml of 1% sodium dodecyl sulfate solution degassed ultrasonically. A specimen was withdrawn at 45 minute and immediately filtered through a 0.8 μm water membrane. The filtrate was quantitatively diluted. The absorbance was measured by UV1900, and the dissolution percentage was calculated.

- IC50 (DU145 tumor cells): 6.6 µM
- IC90 (DU145 tumor cells): 23.5 µM
- Dissolution percentages (%) [1]: 4%
Compound: O=C1C(=C2C(=O)N(Cc3ccccc3)c3ccncc32)Nc2ccc(Br)cc21 [Compound 18]
